Assay results: the NIST ThermoML archive (doi:10.1016/j.jct.2018.03.011)
Numbers after ± are expanded uncertainties.

Assays:
[1] = for Normal melting temperature: Crystal; for viscosity / mass density: 101.33 kPa, Liquid; for viscosity: Falling or rolling sphere viscometry; for mass density: Vibrating tube method
[2] = Molar enthalpy of transition or fusion; conditions: Crystal; DSC

SMILES | Normal melting temperature ([1]; DTA) [°C] | Molar enthalpy of transition or fusion [2] [kJ/mol] | viscosity ([1]; 293.2 K) [mPa·s] | mass density ([1]; 293.2 K) [kg/m3] | viscosity ([1]; 308.2 K) [mPa·s] | mass density ([1]; 308.2 K) [kg/m3] | viscosity ([1]; 313.2 K) [mPa·s] | mass density ([1]; 313.2 K) [kg/m3] | viscosity ([1]; 318.2 K) [mPa·s] | mass density ([1]; 318.2 K) [kg/m3] | viscosity ([1]; 323.2 K) [mPa·s] | mass density ([1]; 323.2 K) [kg/m3] | viscosity ([1]; 328.2 K) [mPa·s] | mass density ([1]; 328.2 K) [kg/m3] | viscosity ([1]; 333.2 K) [mPa·s] | mass density ([1]; 333.2 K) [kg/m3] | viscosity ([1]; 338.2 K) [mPa·s] | mass density ([1]; 338.2 K) [kg/m3] | viscosity ([1]; 343.2 K) [mPa·s] | mass density ([1]; 343.2 K) [kg/m3] | further results
CCCCn1cc[n+](C)c1.[Br-] [1-butyl-3-methylimidazolium bromide] |  |  |  |  |  |  |  |  |  |  |  |  |  |  |  |  |  |  |  |  | Normal melting temperature ([1]; visual observation): 79.0 ± 1.1 °C
CCCC[N+]1(C)CCOCC1.[Br-] [4-butyl-4-methylmorpholinium bromide] | 211.1 ± 1.1 | 14.8 ± 1.1 |  |  |  |  |  |  |  |  |  |  |  |  |  |  |  |  |  |  | 
CC[N+]1(C)CCOCC1.[Br-] [N-ethyl-N-methylmorpholinium bromide] | 172.5 ± 5.1 | 16.7 ± 1.1 |  |  |  |  |  |  |  |  |  |  |  |  |  |  |  |  |  |  | 
OCCOCCO [diethylene glycol] |  |  | 38.11 ± 3.8 | 1116.4 ± 1.1 | 19.02 ± 1.9 | 1105.7 ± 1.1 | 15.6 ± 1.6 | 1102.1 ± 1.1 | 12.69 ± 1.3 | 1098.5 ± 1.1 | 10.62 ± 1.1 | 1094.8 ± 1 | 8.853 ± 0.89 | 1091.2 ± 1 | 7.362 ± 0.74 | 1087.5 ± 1 | 6.208 ± 0.62 | 1083.8 ± 1 | 5.324 ± 0.54 | 1080.1 ± 1 | viscosity ([1]; 298.2 K): 29.82 ± 3 mPa·s; mass density ([1]; 298.2 K): 1112.8 ± 1.1 kg/m3; viscosity ([1]; 303.2 K): 23.64 ± 2.4 mPa·s; mass density ([1]; 303.2 K): 1109.2 ± 1.1 kg/m3
O=S1(=O)CCCC1 [sulfolane] |  |  |  |  | 9.194 ± 0.92 | 1257.4 ± 1.1 | 8.116 ± 0.82 | 1253 ± 1.1 | 7.201 ± 0.72 | 1248.6 ± 1.1 | 6.439 ± 0.65 | 1244.2 ± 1.1 | 5.772 ± 0.58 | 1239.8 ± 1.1 | 5.199 ± 0.52 | 1235.5 ± 1.1 | 4.714 ± 0.47 | 1231.1 ± 1.1 | 4.268 ± 0.43 | 1226.7 ± 1.1 | 
OCCOCCOCCO [triethylene glycol] |  |  | 48.32 ± 4.9 | 1123.1 ± 1.1 | 23.74 ± 2.4 | 1111.5 ± 1.1 | 19.26 ± 1.9 | 1107.6 ± 1.1 | 16.41 ± 1.6 | 1103.8 ± 1.1 | 13.51 ± 1.4 | 1099.9 ± 1.1 | 11.35 ± 1.1 | 1096 ± 1.1 | 9.602 ± 0.97 | 1092.1 ± 1.1 | 8.278 ± 0.83 | 1088.2 ± 1.1 | 7.351 ± 0.74 | 1084.3 ± 1 | viscosity ([1]; 298.2 K): 37.16 ± 3.8 mPa·s; mass density ([1]; 298.2 K): 1119.2 ± 1.1 kg/m3; viscosity ([1]; 303.2 K): 29.27 ± 2.9 mPa·s; mass density ([1]; 303.2 K): 1115.4 ± 1.1 kg/m3
